Test results as given in patent US20250034216A1, “STEREOSELECTIVE COVALENT LIGANDS FOR ONCOGENIC AND IMMUNOLOGICAL PROTEINS” (The Scripps Research Institute, priority 2021, published 2025).

Columns and labels:
Assay in all cases: IA-DTB cysteine engagement
Type in all cases: binding
Conditions in all cases: 22Rv1 cells, 20 μM probe, 1 h, relative to DMSO
ESRP1_C551 = biological target: T1, ESRP1_C551 (Homo sapiens, UniProt Q6NXG1)
T1 construct: endogenous in cells; host or cells: 22Rv1
T1 sequence (Q6NXG1 1-681): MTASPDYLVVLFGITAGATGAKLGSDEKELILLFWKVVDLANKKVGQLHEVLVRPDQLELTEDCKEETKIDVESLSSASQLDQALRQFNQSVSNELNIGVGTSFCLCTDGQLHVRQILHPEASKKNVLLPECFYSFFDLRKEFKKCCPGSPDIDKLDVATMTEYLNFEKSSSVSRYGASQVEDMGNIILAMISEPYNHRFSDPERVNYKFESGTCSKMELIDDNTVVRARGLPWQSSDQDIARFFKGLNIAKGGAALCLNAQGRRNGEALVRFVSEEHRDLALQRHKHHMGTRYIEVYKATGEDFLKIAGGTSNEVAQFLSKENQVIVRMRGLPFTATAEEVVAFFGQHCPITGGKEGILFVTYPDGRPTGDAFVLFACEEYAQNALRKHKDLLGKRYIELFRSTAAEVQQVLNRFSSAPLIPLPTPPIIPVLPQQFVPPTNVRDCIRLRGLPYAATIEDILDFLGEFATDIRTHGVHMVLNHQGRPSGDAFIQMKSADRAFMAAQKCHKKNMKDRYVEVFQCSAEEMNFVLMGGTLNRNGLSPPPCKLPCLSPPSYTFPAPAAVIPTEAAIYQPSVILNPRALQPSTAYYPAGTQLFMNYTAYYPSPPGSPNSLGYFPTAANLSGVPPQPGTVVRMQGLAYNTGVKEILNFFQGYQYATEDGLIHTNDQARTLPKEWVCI
Outline: (§1)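 Cells were treated in situ with electrophilic probes, then lysed, and the lysates (2 mg/mL protein) were labeled with IA-DTB for 1 h at ambient temperature. After reduction, alkylation and trypsin digestion, labeled peptides were streptavidin-enriched, TMT-labeled and fractionated. Engagement ratios are probe vs DMSO reporter intensities, averaged across replicates.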

RETSAT_C547 = biological target: T2, RETSAT_C547 (Homo sapiens, UniProt Q6NUM9)
T2 construct: endogenous in cells; host or cells: 22Rv1
T2 sequence (Q6NUM9 19-610): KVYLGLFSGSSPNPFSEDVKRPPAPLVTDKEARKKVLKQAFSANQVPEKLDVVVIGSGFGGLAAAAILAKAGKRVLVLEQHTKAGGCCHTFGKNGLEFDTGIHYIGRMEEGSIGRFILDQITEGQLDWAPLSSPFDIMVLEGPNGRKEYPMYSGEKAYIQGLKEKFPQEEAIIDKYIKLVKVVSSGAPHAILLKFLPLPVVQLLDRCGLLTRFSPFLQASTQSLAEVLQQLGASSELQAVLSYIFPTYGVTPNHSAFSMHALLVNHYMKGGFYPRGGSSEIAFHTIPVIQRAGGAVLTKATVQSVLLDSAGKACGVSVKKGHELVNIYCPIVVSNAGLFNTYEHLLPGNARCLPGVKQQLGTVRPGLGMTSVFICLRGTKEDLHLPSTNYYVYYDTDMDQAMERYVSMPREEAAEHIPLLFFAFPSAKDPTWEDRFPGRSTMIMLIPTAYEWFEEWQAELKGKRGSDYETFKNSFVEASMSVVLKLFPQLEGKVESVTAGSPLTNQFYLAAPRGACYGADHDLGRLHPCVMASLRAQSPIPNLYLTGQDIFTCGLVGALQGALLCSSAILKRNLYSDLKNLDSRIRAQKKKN
Outline: as §1

TRPM4_C759 = biological target: T3, TRPM4_C759 (Homo sapiens, UniProt Q8TD43)
T3 construct: endogenous in cells; host or cells: 22Rv1
Outline: as §1

T3 sequence (Q8TD43 whole entry): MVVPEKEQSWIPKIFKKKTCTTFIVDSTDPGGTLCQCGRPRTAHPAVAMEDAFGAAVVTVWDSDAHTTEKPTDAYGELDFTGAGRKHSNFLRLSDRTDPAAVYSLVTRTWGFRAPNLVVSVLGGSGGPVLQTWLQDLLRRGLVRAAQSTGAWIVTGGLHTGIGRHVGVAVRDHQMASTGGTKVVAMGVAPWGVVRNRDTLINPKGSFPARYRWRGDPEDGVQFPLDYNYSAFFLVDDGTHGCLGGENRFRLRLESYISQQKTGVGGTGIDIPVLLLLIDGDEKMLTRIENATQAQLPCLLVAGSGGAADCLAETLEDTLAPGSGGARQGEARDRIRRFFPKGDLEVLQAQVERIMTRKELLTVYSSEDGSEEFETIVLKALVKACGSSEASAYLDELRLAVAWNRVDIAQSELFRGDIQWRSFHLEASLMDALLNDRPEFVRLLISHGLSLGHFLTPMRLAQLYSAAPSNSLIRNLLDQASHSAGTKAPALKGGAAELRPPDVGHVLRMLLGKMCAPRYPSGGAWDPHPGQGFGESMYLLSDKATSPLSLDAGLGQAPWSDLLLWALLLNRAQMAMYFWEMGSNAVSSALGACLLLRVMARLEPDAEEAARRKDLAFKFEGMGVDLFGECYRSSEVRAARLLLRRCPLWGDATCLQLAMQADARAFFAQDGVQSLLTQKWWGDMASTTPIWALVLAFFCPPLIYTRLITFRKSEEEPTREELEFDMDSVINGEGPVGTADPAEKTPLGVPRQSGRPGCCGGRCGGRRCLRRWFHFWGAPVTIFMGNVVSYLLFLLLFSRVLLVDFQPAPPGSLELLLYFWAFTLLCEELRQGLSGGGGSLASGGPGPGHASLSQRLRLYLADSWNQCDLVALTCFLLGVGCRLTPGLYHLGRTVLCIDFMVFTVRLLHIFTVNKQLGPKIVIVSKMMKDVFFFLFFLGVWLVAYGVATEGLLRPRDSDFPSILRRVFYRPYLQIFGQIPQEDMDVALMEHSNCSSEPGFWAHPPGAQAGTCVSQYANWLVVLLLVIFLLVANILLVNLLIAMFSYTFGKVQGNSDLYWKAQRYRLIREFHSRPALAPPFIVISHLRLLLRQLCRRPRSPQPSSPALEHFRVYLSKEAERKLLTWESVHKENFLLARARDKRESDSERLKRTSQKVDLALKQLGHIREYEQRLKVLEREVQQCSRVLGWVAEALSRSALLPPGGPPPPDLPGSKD

| % engagement ESRP1_C551 (ESRP1_C551) [%] | % engagement RETSAT_C547 (RETSAT_C547) [%] | Compound | % engagement TRPM4_C759 (TRPM4_C759) [%] |
| --- | --- | --- | --- |
| 69 | 71.25 | C=CC(=O)N1C[C@H](c2ccc(Br)cc2)[C@H]1C(=O)Nc1cccc2cccnc12 [MY-3B, (2S,3S)-1-acryloyl-3-(4-bromophenyl)-N-(quinolin-8-yl)azetidine-2-carboxamide] | 76.25 |
| 73.5 | 66.75 | C=CC(=O)N1C[C@H](c2ccc(Br)cc2)[C@@H]1C(=O)Nc1cccc2cccnc12 [MY-1B, (2R,3S)-1-acryloyl-3-(4-bromophenyl)-N-(quinolin-8-yl)azetidine-2-carboxamide] | 48.75 |
| 6.5 | 53.5 | C=CC(=O)N1C[C@H](c2ccc(Br)cc2)[C@H]1C(=O)Nc1cccc2cccnc12 [MY-3A, (2S,3S)-1-acryloyl-3-(4-bromophenyl)-N-(quinolin-8-yl)azetidine-2-carboxamide] | 50.25 |
| 51 | 80 | C=CC(=O)N1C[C@@H](c2ccc(Br)cc2)[C@H]1C(=O)Nc1cccc2cccnc12 [MY-1A, (2S,3R)-1-acryloyl-3-(4-bromophenyl)-N-(quinolin-8-yl)azetidine-2-carboxamide] | 69.75 |
